Experimental data taken from patent US20080318943A1, “Compounds and Uses Thereof - 848” (ASTRAZENECA AB, priority 2007, published 2008).

How the values were obtained:
GABAA receptor α1β2γ2 = target: T1, GABAA receptor α1β2γ2 (Homo sapiens, UniProt P14867+P18507); assay: Two-electrode voltage-clamp potentiation of GABA EC10 current in Xenopus oocytes, GABAA1; format: cell-based; conditions: percentage potentiation of GABA EC10 current divided by that of diazepam
T1 construct: expressed in transfected cells; host or cells: Xenopus laevis oocytes injected with cRNA
In short: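 Human GABAA receptors expressed in Xenopus oocytes by cRNA injection (α:β:γ molar ratio ~1:1:10 for α1β2γ2, 1:1:1 for α2β3γ2), recorded 2-10 days later by two-electrode voltage clamp at −60 mV in ND-96, pH 7.5. Modulator preapplied 30 s before GABA at per-oocyte EC10. Peak-current percent potentiation over GABA alone, normalised to diazepam.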

GABAA receptor α2β3γ2 = target: T2, GABAA receptor α2β3γ2 (Homo sapiens, UniProt P18507+P47869); assay: Two-electrode voltage-clamp potentiation of GABA EC10 current in Xenopus oocytes, GABAA2; format: cell-based; conditions: percentage potentiation of GABA EC10 current divided by that of diazepam
T2 construct: expressed in transfected cells; host or cells: Xenopus laevis oocytes injected with cRNA
Method: GABAA receptors were heterologously expressed in Xenopus oocytes by injecting cRNA corresponding to human α1, α2, α3, α5, β2, P3 and γ2 subunits of the GABAA receptor genes. The specific subunit combinations (subtypes) were as follows: α1β2γ2, α2β3γ2, α3β3γ2, and α5β3γ2. The EC10 of GABA is approximated for each cell. Stability of GABA-mediated (EC10) current is established. Modulatory effect of test compound is determined and compared across subtypes. […] Thus, the assay can characterize modulatory effects and determine subtype selectivity of test compounds on major subtypes of GABAA receptors.
Xenopus laevis frogs (Xenopus I, Kalamazoo, Mich.) were anesthetized using 0.15% tricaine. Surgically removed ovarian lobes were teased out in OR2 solution (82 NaCl, 2.5 KCl, 5 HEPES, 1.5 NaH2PO4, 1 MgCl2, 0.1 EDTA, in mM, pH 7.4). The oocytes were defolliculated by incubation in 25 mL OR2 containing 0.2% collagenase 1A (SIGMA) two times for about 60 minutes on a platform shaker and stored in Leibovitz's L-15 medium. Oocytes were injected the following day in 0.5× Leibovitz's L-15 medium containing […] gentamycin, 10 units/ml penicillin, and […] streptomycin.
Capped cRNAs from the linearized vectors containing human α1, β2 and γ2 subunits of the GABAA receptor genes were mixed in ratio of […]. Oocytes were injected with 25-50 nL of mixed RNA with an appx molar ratio for α1, β2, and γ2 as 1:1:10. Oocyte recordings were done 2-10 days after injection. The same methods apply to subtypes derived from α2β3γ2, α3β3γ2, and α5β3γ2, except for 1:1:1 ratio was used for α, β, and γ subunits.
All measurements were done in a medium containing ND-96 (96 NaCl, 2 KCl, 1.8 CaCl2.2H2O, 1 MgCl2.6H2O, 5 HEPES, in mM, pH 7.5). Two-electrode voltage-clamp recording was carried out using OpusXpress amplifier (Axon Instruments, Foster City, Calif.), which allows simultaneous recording from 8 oocytes. Oocytes were impaled with two electrodes of 1-2 MΩ tip resistance when filled with 3M KCl. Recordings were begun when membrane potential became stable at potentials negative to −50-−60 mV. Membrane potential was held at −60 mV. […] The concentration of GABA corresponded to the EC10 value calculated for each oocyte. The modulator pulses started 30 s before the GABA pulse so as to allow preincubation with the modulator. A set of 3 pulses with just GABA without modulator was given prior to the modulator-containing pulses to define the baseline GABA response. Two oocytes per each experiment were dedicated to observe the effect of diazepam on GABA response to ensure the presence of γ2 subunit in the GABAA pentameric complex, which imparts diazepam sensitivity to the complex.
Current amplitude (i) was measured from baseline to peak using Clampfit (Axon Inst., Foster City, Calif.). Potentiation was calculated as percent change from the baseline GABA current flux 100×(imod/icontrol)−1) where imod=current mediated by modulator+GABA and icontrol=current mediated by GABA alone. […] Similarly, a value of −50% potentiation means the presence of modulator caused a 50% decrease in the control current. Various other data shown here were fitted and plotted using GraphPad Prism (GraphPad Software, Inc. San Diego, Calif.). The percentage potentiation was converted to relative potentiation by dividing it with percentage potentiation value obtained from the same assay with diazepam as a control.

[1] = target: T3, GABAA2 receptors (α2, β3, γ2 receptor subunits transfected into Sf9 cells) (Homo sapiens, UniProt P18507+P47869); assay: GABAA2 Binding Method ([3H]-Flunitrazepam displacement); conditions: [3H]-Flunitrazepam ~2 nM, α2β3γ2 Sf9 membranes, 1 hr at 4° C.
T3 construct: host or cells: Sf9 cells (membranes)
In short: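 Displacement of [3H]-flunitrazepam (~2 nM in assay) from recombinant human α2β3γ2 receptors in Sf9 membranes; 1 h incubation at 4 °C, harvest by filtration. Values reported as percent of control, IC50 and Ki.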

T2 sequence (P47869 29-451): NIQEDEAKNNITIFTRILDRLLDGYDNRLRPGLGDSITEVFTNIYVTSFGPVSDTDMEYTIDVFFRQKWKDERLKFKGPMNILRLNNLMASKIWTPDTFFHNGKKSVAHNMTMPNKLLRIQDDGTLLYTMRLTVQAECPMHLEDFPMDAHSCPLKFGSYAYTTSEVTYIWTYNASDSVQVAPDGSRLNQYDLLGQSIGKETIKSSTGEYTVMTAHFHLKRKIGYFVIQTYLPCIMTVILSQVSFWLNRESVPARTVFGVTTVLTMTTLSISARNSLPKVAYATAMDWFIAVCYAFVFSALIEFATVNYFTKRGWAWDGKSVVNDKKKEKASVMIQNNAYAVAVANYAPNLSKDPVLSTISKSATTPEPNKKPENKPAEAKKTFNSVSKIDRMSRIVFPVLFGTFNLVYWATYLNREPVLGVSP
T2 sequence (P28472 26-473 partner): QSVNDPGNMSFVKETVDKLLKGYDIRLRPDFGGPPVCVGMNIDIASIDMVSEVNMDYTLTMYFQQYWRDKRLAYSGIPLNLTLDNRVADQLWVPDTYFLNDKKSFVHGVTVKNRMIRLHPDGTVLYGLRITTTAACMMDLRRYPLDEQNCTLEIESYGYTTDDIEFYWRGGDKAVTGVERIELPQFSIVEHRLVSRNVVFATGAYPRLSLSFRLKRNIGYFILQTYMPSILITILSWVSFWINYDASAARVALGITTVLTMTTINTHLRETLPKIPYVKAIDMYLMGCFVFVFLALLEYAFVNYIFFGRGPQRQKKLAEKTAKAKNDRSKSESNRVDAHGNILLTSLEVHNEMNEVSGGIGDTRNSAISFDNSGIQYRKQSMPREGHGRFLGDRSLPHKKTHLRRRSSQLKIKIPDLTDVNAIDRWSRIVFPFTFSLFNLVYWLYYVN
T2 sequence (P18507 40-475): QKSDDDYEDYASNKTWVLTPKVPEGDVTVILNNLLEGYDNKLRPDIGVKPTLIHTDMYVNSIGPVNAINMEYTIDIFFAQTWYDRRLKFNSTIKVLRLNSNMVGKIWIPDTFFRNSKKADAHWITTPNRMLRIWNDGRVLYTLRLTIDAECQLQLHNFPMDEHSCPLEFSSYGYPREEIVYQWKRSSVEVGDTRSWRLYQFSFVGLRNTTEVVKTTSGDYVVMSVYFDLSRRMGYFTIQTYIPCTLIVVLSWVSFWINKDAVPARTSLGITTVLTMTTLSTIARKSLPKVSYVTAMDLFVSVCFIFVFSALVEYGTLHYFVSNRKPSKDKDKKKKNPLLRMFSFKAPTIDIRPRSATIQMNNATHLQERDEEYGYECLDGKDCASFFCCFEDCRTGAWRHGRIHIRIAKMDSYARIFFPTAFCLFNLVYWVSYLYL
T3 sequence (P47869 29-451): as the sequence (P47869 29-451) above
T3 sequence (P28472 26-473 partner): as the sequence (P28472 26-473 partner) above
T3 sequence (P18507 40-475): as the sequence (P18507 40-475) above
T1 sequence (P14867 28-456): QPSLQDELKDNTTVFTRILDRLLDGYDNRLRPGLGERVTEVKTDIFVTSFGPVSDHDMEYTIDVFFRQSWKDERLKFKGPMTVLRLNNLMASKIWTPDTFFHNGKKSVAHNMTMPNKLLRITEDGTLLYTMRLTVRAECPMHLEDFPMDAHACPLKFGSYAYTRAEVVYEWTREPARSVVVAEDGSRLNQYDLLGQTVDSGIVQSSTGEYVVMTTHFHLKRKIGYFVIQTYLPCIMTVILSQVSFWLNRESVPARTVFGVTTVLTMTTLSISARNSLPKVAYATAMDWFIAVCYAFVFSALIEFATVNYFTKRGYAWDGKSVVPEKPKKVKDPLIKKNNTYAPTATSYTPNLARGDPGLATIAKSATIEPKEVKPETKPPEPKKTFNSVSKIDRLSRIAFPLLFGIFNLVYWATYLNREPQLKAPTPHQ
T1 sequence (P47870 25-512 partner limits assumed): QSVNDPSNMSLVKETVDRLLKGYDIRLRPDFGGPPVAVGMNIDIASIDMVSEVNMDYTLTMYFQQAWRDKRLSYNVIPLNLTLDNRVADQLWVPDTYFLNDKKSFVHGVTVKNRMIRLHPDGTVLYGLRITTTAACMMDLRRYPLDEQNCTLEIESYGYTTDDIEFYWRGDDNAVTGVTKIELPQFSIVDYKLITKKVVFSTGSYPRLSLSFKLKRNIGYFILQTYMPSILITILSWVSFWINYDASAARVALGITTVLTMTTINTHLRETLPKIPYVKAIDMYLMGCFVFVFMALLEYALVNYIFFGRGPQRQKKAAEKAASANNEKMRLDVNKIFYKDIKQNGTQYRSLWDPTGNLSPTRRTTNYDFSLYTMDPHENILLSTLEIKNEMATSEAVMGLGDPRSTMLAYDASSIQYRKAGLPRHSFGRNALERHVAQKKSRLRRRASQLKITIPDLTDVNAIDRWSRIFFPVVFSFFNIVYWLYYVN
T1 sequence (P18507 40-475): as the sequence (P18507 40-475) above

Row | Relative Potentiation for GABAA1 (GABAA receptor α1β2γ2) | Relative Potentiation for GABAA2 (GABAA receptor α2β3γ2) | Ki [1] | Structure (SMILES)
1 | −0.043 | 0.21 | 5.46 nM | COc1cccc(C#N)c1-c1cccc2c(N)c3c(nc12)CN(C1CCC1)C3=O [2-(9-Amino-2-cyclobutyl-1-oxo-2,3-dihydro-1H-pyrrolo[3,4-b]quinolin-5-yl)-3-methoxybenzonitrile]
2 | −0.02 | 0.21 | 6.2 nM | N#Cc1ccc(F)cc1-c1cccc2c(N)c3c(nc12)CN(C1CCC1)C3=O [2-(9-Amino-2-cyclobutyl-1-oxo-2,3-dihydro-1H-pyrrolo[3,4-b]quinolin-5-yl)-4-fluorobenzonitrile]
3 | −0.024 | 0.11 | 4.19 nM | N#Cc1cc(F)ccc1-c1cccc2c(N)c3c(nc12)CN(C1CCC1)C3=O [2-(9-Amino-2-cyclobutyl-1-oxo-2,3-dihydro-1H-pyrrolo[3,4-b]quinolin-5-yl)-5-fluorobenzonitrile]
4 | −0.016 | 0.18 | 0.905 nM | COc1cccc(-c2cccc3c(N)c4c(nc23)CN(C2CCC2)C4=O)c1C#N [2-(9-Amino-2-cyclobutyl-1-oxo-2,3-dihydro-1H-pyrrolo[3,4-b]quinolin-5-yl)-6-methoxybenzonitrile]
5 | 0.062 | 0.27 | 5.75 nM | N#Cc1ccccc1-c1cccc2c(N)c3c(nc12)CN(C1CCCC1)C3=O [2-(9-Amino-2-cyclopentyl-1-oxo-2,3-dihydro-1H-pyrrolo[3,4-b]quinolin-5-yl)-benzonitrile]
6 | −0.064 | 0.087 | 16.3 nM | N#Cc1ccccc1-c1cccc2c(N)c3c(nc12)CN(C1CC1)C3=O [2-(9-Amino-2-cyclopropyl-1-oxo-2,3-dihydro-1H-pyrrolo[3,4-b]quinolin-5-yl)-benzonitrile]
7 | 0.15 | 0.21 | 30.7 nM | CCCN1Cc2nc3c(-c4ccccc4C#N)cccc3c(N)c2C1=O [2-(9-amino-1-oxo-2-propyl-2,3-dihydro-1H-pyrrolo[3,4-b]quinolin-5-yl)benzonitrile]
8 | −0.038 | 0.17 | 15.6 nM | N#Cc1ccc(-c2cccc3c(N)c4c(nc23)CN(C2CCC2)C4=O)cn1 [5-(9-Amino-2-cyclobutyl-1-oxo-2,3-dihydro-1H-pyrrolo[3,4-b]quinolin-5-yl)-pyridine-2-carbonitrile]
9 | 0.005 | 0.15 | 2.39 nM | N#Cc1ccc(-c2cccc3c(N)c4c(nc23)CN(C2CCC2)C4=O)nc1 [6-(9-Amino-2-cyclobutyl-1-oxo-2,3-dihydro-1H-pyrrolo[3,4-b]quinolin-5-yl)-nicotinonitrile]
10 | 0.088 | 0.15 | 10.3 nM | COc1ccc(CN2Cc3nc4c(-c5c(F)cccc5OC)cccc4c(N)c3C2=O)cc1Cl [9-Amino-2-(3-chloro-4-methoxybenzyl)-5-(2-fluoro-6-methoxyphenyl)-2,3-dihydropyrrolo[3,4-b]quinolin-1-one]
11 | −0.052 | 0.1 | 7.62 nM | Cc1cccc(-c2cccc3c(N)c4c(nc23)C(O)N(C2CCC2)C4=O)n1 (stereo not drawn) [9-Amino-2-cyclobutyl-3-hydroxy-5-(6-methylpyridin-2-yl)-2,3-dihydropyrrolo[3,4-b]quinolin-1-one]

Row | Structure (SMILES) | Relative Potentiation for GABAA1 (GABAA receptor α1β2γ2) | Relative Potentiation for GABAA2 (GABAA receptor α2β3γ2) | Ki [1]
12 | N#Cc1cncc(-c2cccc3c(N)c4c(nc23)CN(C2CCC2)C4=O)c1 [5-(9-Amino-2-cyclobutyl-1-oxo-2,3-dihydro-1H-pyrrolo[3,4-b]quinolin-5-yl)-nicotinonitrile] | 0.048 | 0.21 | 5.85 nM
